Experimental data reported in PMC10557146 (2023).

Tested on: htel, d[AG3(TTAG3)3]; htel(K) (hybrid in K+); htel(Na) (antiparallel in Na+) (DNA, G4) AGGGTTAGGGTTAGGGTTAGGG
Assay: visible absorption titration, 380 nm, Bard fit
Details: pH 7, 298 K, per G-tetrad

N#Cc1cc2nc3c4cccnc4c4ncccc4c3nc2cc1C#N.[Ru+2].c1cnc2c(c1)ccc1cccnc12.c1cnc2c(c1)ccc1cccnc12
Kb (K+ (100 mM KCl), 50 mM phosphate, hybrid htel(K), site size 1.8, 7.2 μM complex): 1.1(±0.6) × 10^7 M^-1
Kb (K+ (100 mM KCl), phosphate buffer, hybrid htel(K), site size 1.5): 4.2(±0.5) × 10^5 M^-1
Kb (Na+ (sodium phosphate; 100 mM NaCl in TRIR samples), phosphate buffer, antiparallel htel(Na), site size 1.1): 1.9(±0.7) × 10^5 M^-1
Kb (Na+ (sodium phosphate; 100 mM NaCl in TRIR samples), phosphate buffer, antiparallel htel(Na), site size 1.5): 2.2(±0.3) × 10^6 M^-1
